In patent publication US20260022096A1, “NOVEL SULFONAMIDES AND THEIR USE AS NEUROPROTECTIVE AND/OR NEURORESTORATIVE AGENTS” (GENECODE, priority 2022, published 2026):

Molecular target: T1, GFRα1-RET (Homo sapiens, UniProt P56159)
T1 construct: expressed in transfected cells; host or cells: MG87 murine fibroblasts, stably transfected
T1 sequence (P56159 25-429 limits assumed): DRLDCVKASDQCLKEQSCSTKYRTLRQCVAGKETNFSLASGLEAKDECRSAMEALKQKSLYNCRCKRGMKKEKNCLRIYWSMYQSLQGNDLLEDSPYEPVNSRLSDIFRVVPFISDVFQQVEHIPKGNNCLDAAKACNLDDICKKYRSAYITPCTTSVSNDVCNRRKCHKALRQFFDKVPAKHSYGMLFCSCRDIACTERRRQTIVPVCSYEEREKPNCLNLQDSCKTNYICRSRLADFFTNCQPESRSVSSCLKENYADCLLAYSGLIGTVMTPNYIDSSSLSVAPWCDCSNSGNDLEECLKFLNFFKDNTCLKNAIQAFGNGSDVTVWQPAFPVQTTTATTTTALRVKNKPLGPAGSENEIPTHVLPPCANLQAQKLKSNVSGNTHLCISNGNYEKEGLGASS
Test: Elk1 reporter-gene (luciferase) assay in cells expressing GFRα1-RET
Assay type: cell-based
Settings: MG87 murine fibroblasts stably transfected with PathDetect Elk-1, GFRα1 and RET, 6 concentrations, agonist/activator activity
Procedure: For ECso determination, a dose-response test was performed using 6 concentrations of each tested compound. Dose-response curves were fitted using the sigmoidal dose-response (variable slope) analysis in GraphPad Prism program (Graph Pad Inc) and ECso of agonist/activator activity was calculated. Dose-response experiments were all performed in duplicate, two times independently.

SMILES	EC50 [nM]
CCCN(C)S(=O)(=O)c1ccc(OC)c(N2CCN(C(=O)c3ccc(F)cc3Cl)CC2C)c1 (racemic) [compound 001, 4-methoxy-N-methyl-N-propyl-3-[rac-(2S)-4-(2-chloro-4-fluoro-benzoyl)-2-methyl-piperazin-1-yl]benzenesulfonamide]	1000 to 10000
COc1ccc(S(=O)(=O)N2CCCC(Cc3ccccc3)C2)cc1N1C2CCC1CN(C(=O)c1ccc(F)cc1Cl)C2 (racemic) [compound 011, [(1S,5R)-8-[5-[[(3RS)-3-benzyl-1-piperidyl]sulfonyl]-2-methoxy-phenyl]-3,8-diazabicyclo[3.2.1]]octan-3-yl]-(2-chloro-4-fluoro-phenyl)methanone]	< 1000
CCCN(C)S(=O)(=O)c1ccc(OC)c(N2CCN(C(=O)c3ccc(F)cc3C(F)(F)F)CC2C(F)(F)F)c1 (racemic) [compound 016, 4-methoxy-N-methyl-N-propyl-3-[rac-(2S)-4-[4-fluoro-2-(trifluoromethyl)benzoyl]-2-(trifluoromethyl)piperazin-1-yl]benzenesulfonamide]	1000 to 10000
CCCN(C)S(=O)(=O)c1ccc(OC)c(N2CCN(C(=O)c3ccc(F)cc3C(F)(F)F)CC2CC)c1 (racemic) [compound 017, 4-methoxy-N-methyl-N-propyl-3-[rac-(2S)-2-ethyl-4-[4-fluoro-2-(trifluoromethyl)benzoyl]piperazin-1-yl]benzenesulfonamide]	10000 to 50000
COc1ccc(S(=O)(=O)N2CCC(Cc3ccccc3)CC2)cc1N1CCN(C(=O)c2ccc(F)cc2C(F)(F)F)CC1C (racemic) [compound 018, [4-fluoro-2-(trifluoromethyl)phenyl]-[rac-(3S)-4-[5-[(4-benzyl-1-piperidyl)sulfonyl]-2-methoxy-phenyl]-3-methyl-piperazin-1-yl]methanone]	1000 to 10000
COc1ccc(S(=O)(=O)N2CCC(Cc3ccccc3)CC2)cc1N1CCN(C(=O)c2ccc(F)cc2Cl)CC1C (racemic) [compound 019, (2-chloro-4-fluoro-phenyl)-[rac-(3S)-4-[5-[(4-benzyl-1-piperidyl)sulfonyl]-2-methoxy-phenyl]-3-methyl-piperazin-1-yl]methanone]	< 1000
COc1ccc(S(=O)(=O)NC(C)(C)C)cc1N1CCN(C(=O)c2ccc(F)cc2Cl)CC1C (racemic) [compound 020, N-tert-butyl-4-methoxy-3-[rac-(2S)-4-(2-chloro-4-fluoro-benzoyl)-2-methyl-piperazin-1-yl]benzenesulfonamide]	10000 to 50000
CCCN(C)S(=O)(=O)c1ccc(OC)c(N2CCN(C(=O)c3ccc(F)cc3C(F)(F)F)CC2C)c1 (racemic) [compound 021, 4-methoxy-N-methyl-N-propyl-3-[rac-(2S)-4-[4-fluoro-2-(trifluoromethyl)benzoyl]-2-methyl-piperazin-1-yl]benzenesulfonamide]	1000 to 10000
CCCN(C)S(=O)(=O)c1ccc(OC)c(N2CCN(C(=O)c3ccc(F)cc3C(F)(F)F)CC2COC)c1 (racemic) [compound 022, 4-methoxy-N-methyl-N-propyl-3-[rac-(2R)-4-[4-fluoro-2-(trifluoromethyl)benzoyl]-2-(methoxymethyl)piperazin-1-yl]benzenesulfonamide]	10000 to 50000
COc1ccc(S(=O)(=O)N2CCC(Cc3ccccc3)CC2)cc1N1C2CCC1CN(C(=O)c1ccc(F)cc1Cl)C2 (racemic) [compound 025, (2-chloro-4-fluoro-phenyl)-[rac-(1S,5S)-8-[5-[(4-benzyl-1-piperidyl)sulfonyl]-2-methoxy-phenyl]-3,8-diazabicyclo[3.2.1]]octan-3-yl]methanone]	1000 to 10000
COc1ccc(S(=O)(=O)N2CCC(OCc3ccccc3)C2)cc1N1C2CCC1CN(C(=O)c1ccc(F)cc1Cl)C2 (racemic) [compound 037, [(1S,5R)-8-[5-[(3SR)-3-benzyloxypyrrolidin-1-yl]sulfonyl-2-methoxy-phenyl]-3,8-diazabicyclo[3.2.1]octan-3-yl]-(2-chloro-4-fluoro-phenyl)methanone]	1000 to 10000
COc1ccc(S(=O)(=O)N(C)CCCF)cc1N1CCN(C(=O)c2ccc(F)cc2Cl)CC1C (racemic) [compound 038, N-(3-fluoropropyl)-4-methoxy-N-methyl-3-[rac-(2S)-4-(2-chloro-4-fluoro-benzoyl)-2-methyl-piperazin-1-yl]benzenesulfonamide]	1000 to 10000
COc1ccc(S(=O)(=O)N2CCN([C@H]3C[C@@H]3c3ccc(F)cc3)CC2)cc1N1[C@@H]2CC[C@H]1CN(C(=O)c1ccc(F)cc1Cl)C2 (racemic) [compound 044, (2-chloro-4-fluoro-phenyl)-[(1S,5R)-8-[5-[4-[(1SR,2RS)-2-(4-fluorophenyl)cyclopropyl]piperazin-1-yl]sulfonyl-2-methoxy-phenyl]-3,8-diazabicyclo[3.2.1]octan-3-yl]methanone]	< 1000
COc1ccc(S(=O)(=O)N2CCN(CC(C)c3ccc(F)cc3)CC2)cc1N1C2CCC1CN(C(=O)c1ccc(F)cc1Cl)C2 (racemic) [compound 045, (2-chloro-4-fluoro-phenyl)-[(1S,5R)-8-[5-[4-[(2RS)-2-(4-fluorophenyl)propyl]piperazin-1-yl]sulfonyl-2-methoxy-phenyl]-3,8-diazabicyclo[3.2.1]octan-3-yl]methanone]	< 1000
COc1ccc(S(=O)(=O)N2CCN(CC(C)c3ccccc3)CC2)cc1N1C2CCC1CN(C(=O)c1ccc(F)cc1Cl)C2 (racemic) [compound 047, (2-chloro-4-fluoro-phenyl)-[(1S,5R)-8-[2-methoxy-5-[4-[(2RS)-2-phenylpropyl]piperazin-1-yl]sulfonyl-phenyl]-3,8-diazabicyclo[3.2.1]octan-3-yl]methanone]	< 1000
CC(NS(=O)(=O)c1cc(Cl)c(O)c(N2C3CCC2CN(C(=O)c2ccc(F)cc2Cl)C3)c1)C(F)(F)F (racemic) [compound 104, 3-chloro-5-[(1S,5R)-3-(2-chloro-4-fluoro-benzoyl)-3,8-diazabicyclo[3.2.1]octan-8-yl]-4-hydroxy-N-[(1SR)-2,2,2-trifluoro-1-methyl-ethyl]benzenesulfonamide]	1000 to 10000
COc1ccc(S(=O)(=O)N2CCC(Oc3ccccc3)C2)cc1N1C2CCC1CN(C(=O)c1ccc(F)cc1Cl)C2 (racemic) [compound 126, (2-chloro-4-fluoro-phenyl)-[(1S,5R)-8-[2-methoxy-5-[(3SR)-3-phenoxypyrrolidin-1-yl]sulfonyl-phenyl]-3,8-diazabicyclo[3.2.1]octan-3-yl]methanone]	< 1000
COc1ccc(S(=O)(=O)N2CCC(N(C)c3ccccc3)C2)cc1N1C2CCC1CN(C(=O)c1ccc(F)cc1Cl)C2 (racemic) [compound 127, (2-chloro-4-fluoro-phenyl)-[(1S,5R)-8-[2-methoxy-5-[(3SR)-3-(N-methylanilino)pyrrolidin-1-yl]sulfonyl-phenyl]-3,8-diazabicyclo[3.2.1]octan-3-yl]methanone]	< 1000
COc1ccc(S(=O)(=O)N2CCN(CC(O)c3ccc(F)cc3)CC2)cc1N1C2CCC1CN(C(=O)c1ccc(F)cc1Cl)C2 (racemic) [compound 128, (2-chloro-4-fluoro-phenyl)-[(1S,5R)-8-[5-[4-[(2RS)-2-(4-fluorophenyl)-2-hydroxy-ethyl]piperazin-1-yl]sulfonyl-2-methoxy-phenyl]-3,8-diazabicyclo[3.2.1]octan-3-yl]methanone]	< 1000
COc1ccc(S(=O)(=O)NC(C)(C)C)cc1N1[C@@H]2CC[C@H]1CN(C(=O)c1ccc(F)cc1Cl)C2 [compound 002]	1000 to 10000
CCCN(C)S(=O)(=O)c1ccc(OC)c(N2[C@@H]3CC[C@H]2CN(C(=O)c2ccc(F)cc2Cl)C3)c1 [compound 003]	1000 to 10000
COc1ccc(S(=O)(=O)N2CCCC2)cc1N1[C@@H]2CC[C@H]1CN(C(=O)c1ccc(F)cc1Cl)C2 [compound 004, (2-chloro-4-fluoro-phenyl)-[(1S,5R)-8-(2-methoxy-5-pyrrolidin-1-ylsulfonyl-phenyl)-3,8-diazabicyclo[3.2.1]octan-3-yl]methanone]	1000 to 10000
COc1ccc(S(=O)(=O)N(C)CC2CC2)cc1N1[C@@H]2CC[C@H]1CN(C(=O)c1ccc(F)cc1Cl)C2 [compound 005, 3-[(1S,5R)-3-(2-chloro-4-fluoro-benzoyl)-3,8-diazabicyclo[3.2.1]octan-8-yl]-N-(cyclopropylmethyl)-4-methoxy-N-methyl-benzenesulfonamide]	< 1000
COc1ccc(S(=O)(=O)N2CCC(F)CC2)cc1N1[C@@H]2CC[C@H]1CN(C(=O)c1ccc(F)cc1Cl)C2 [compound 006]	1000 to 10000
COc1ccc(S(=O)(=O)N2CCC(C(F)(F)F)CC2)cc1N1[C@@H]2CC[C@H]1CN(C(=O)c1ccc(F)cc1Cl)C2 [compound 007, (2-chloro-4-fluoro-phenyl)-[(1S,5R)-8-[2-methoxy-5-[[4-(trifluoromethyl)-1-piperidyl]sulfonyl]phenyl]-3,8-diazabicyclo[3.2.1]octan-3-yl]methanone]	< 1000
COc1ccc(S(=O)(=O)N2CCC(=Cc3ccccc3)CC2)cc1N1[C@@H]2CC[C@H]1CN(C(=O)c1ccc(F)cc1Cl)C2 [compound 008, [(1S,5R)-8-[5-[(4-benzylidene-1-piperidyl)sulfonyl]-2-methoxy-phenyl]-3,8-diazabicyclo[3.2.1]octan-3-yl]-(2-chloro-4-fluoro-phenyl)methanone]	< 1000
